From patent US12421216B2, “Voruciclib polymorphs and methods of making and using thereof” (MEI PHARMA, INC., priority 2019, dated 2025) come the findings set out here.

Series [1] is described as follows: Quantitative solubility determination of voruciclib malonate after the thermocycling experiments (UPLC). The series is classed as physicochemical. The method, then:
Moreover, after the thermocycling experiments, an aliquot of the mother liquor was taken and analyzed by UPLC to determine the API solubility. After that, the solutions were evaporated under vacuum (5 mbar) and the dry solids were analyzed by HT-XRPD. The solids were then exposed to accelerated aging conditions (2 days at 40° C./75% RH) followed by HT-XRPD re-analysis. Suspensions of amorphous voruciclib malonate salt were prepared in 24 solvents. After the temperature profile, an aliquot of mother liquor was taken, filtered and analyzed by UPLC to determine the API solubility. A small aliquot of mother liquor was taken and filtered using 0.2 μM PTFE syringe filters. The concentration of solute was determined by UPLC analysis. After that, the solutions were evaporated under vacuum (5 mbar) and the dry solids were analyzed by HT-XRPD. The solids were then exposed to accelerated aging conditions (2 days at 40° C./75% RH) followed by HT-XRPD re-analysis.

For series [2] the following is noted: dog, in vivo. The method, then:
Each salt form was formulated into tablets with identical formulations. 9 dogs were divided into three group of 3 dogs/group. Each group received one of the following different pre-treatments: • 1. No pretreatment (natural gastric pH—could be acidic or alkaline) • 2. Famotidine (causes alkaline gastric pH) • 3. Pentagastrin (causes acidic gastric pH) The study used a crossover design. Each group of dogs first received pretreatment and was dosed with the Voruciclib HCl salt. After a washout period, the same group of dogs received the same pretreatment and was dosed with the Voruciclib malonate salt. The results were then analyzed for variability. […]
Clinical observations were recorded at least once daily, approximately 1 hour post-Voruciclib dose on dosing days. Body weight measurements were recorded for randomization, prior to dose administration (Day 1 and 8), and on the last day of the washout period following Phase 1 (Day 7). […]
Pharmacokinetic Analysis: Pharmacokinetic (PK) analyses were performed on the individual plasma concentration versus time data for Voruciclib using Phoenix WinNonlin non-compartmental analysis. To evaluate drug absorption, the PK parameter C max (maximum plasma concentration) was measured.
For each dog, the actual administered dose of voruciclib free base was calculated on a mg/kg basis, using the dog body weight data. […]

The nature of series [3]: Physical stability of solid forms upon drying under vacuum, HT-XRPD. Particulars: for Physical stability upon drying under deep/high vacuum: oxalate, phosphate, malonate forms, 5 mbar, 18 h. It is filed as physicochemical. The method, then:
(§1) Amorphous voruciclib oxalate salt, generated by freeze-drying, was used to start the thermocycling experiments. Suspensions were prepared in the selected solvent systems at RT. Subsequently, the mixtures were subjected to a temperature profile. After the temperature profile, the solids were separated from the solutions by centrifugation and were dried at ambient conditions and under deep vacuum before being harvested and analyzed by HT-XRPD. The liquid phases were also dried under deep vacuum before being harvested and analyzed by HT-XRPD. All solids were exposed to AAC (40° C./75% RH, 2 days).
After the temperature profile, the solids were separated from the liquids by centrifugation and the solid phase was dried at ambient conditions and under deep vacuum (5 mbar) before being harvested and analyzed by HT-XRPD. The liquid phases were dried under deep vacuum (5 mbar) and the recovered solids were analyzed by HT-XRPD. All solids were then exposed to accelerated aging conditions (40° C./75% RH, 2 days) followed by HT-XRPD re-analysis.
as §1, with “voruciclib phosphate” for “voruciclib oxalate”, “profile. Upon completion of” for “profile. After”, “dried under” for “dried at”
After the temperature profile, the solids were separated from the liquids by centrifugation and the solid phase was dried under ambient conditions and under deep vacuum (5 mbar, 18 h) before being harvested and analyzed by HT-XRPD. The liquid phases were dried under deep vacuum (5 mbar, 18 h) and the recovered solids were analyzed by HT-XRPD. All solids were then exposed to accelerated aging conditions (40° C./75% RH, 2 days) followed by HT-XRPD re-analysis.
Amorphous voruciclib malonate salt, generated by freeze-drying, was used to start the thermocycling experiments. Suspensions were prepared in the selected solvent systems at RT and were subjected to three thermocycles between 50 and 5° C., followed by aging at 25° C. for 3 days. Upon completion of the aging time, the solids were separated from the liquids by centrifugation and they were dried at ambient conditions and under deep vacuum (5 mbar) before being harvested and analyzed by HT-XRPD.
After the temperature profile the solids were separated from the solution by centrifugation and they were dried at ambient conditions and under deep vacuum before being harvested and analyzed by HT-XRPD.

The structures appear in SMILES notation. “Also recorded” adds a separate entry of the source. Structures can show the parent of a compound that is named as a salt. Where two headings read alike, the source gives them in different places.

`CN1CC[C@H](c2c(O)cc(O)c3c(=O)cc(-c4ccc(C(F)(F)F)cc4Cl)oc23)[C@H]1CO` (stereo in doubt) [voruciclib malonate, 2-(2-chloro-4-(trifluoromethyl)phenyl)-5,7-dihydroxy-8-((2S,3R)-2-(hydroxymethyl)-1-methylpyrrolidin-3-yl)-4H-chromen-4-one malonate salt]: the solubility is 2.3 mg/mL in series [1] (1,2-dimethoxyethane, organic solvent or mixture, thermodynamic from solid, 1,2-Dimethoxyethane, read-out: Solubility); 0.9 mg/mL in series [1] (1,4-dioxane, organic solvent or mixture, thermodynamic from solid, 1,4-Dioxane, read-out: Solubility); 5.1 mg/mL in series [1] (2-propanol, organic solvent or mixture, thermodynamic from solid, 2-Propanol, read-out: Solubility); 130 mg/mL in series [1] (2-propanol/water (90/10), organic solvent or mixture, thermodynamic from solid, 2-Propanol/water (90/10), read-out: Solubility); 1 to 10 mg/mL in series [1] (IPA, acetone, AcN, MEK and 1,2-dimethoxyethane, organic solvent or mixture, thermodynamic from solid, IPA, acetone, AcN, MEK and 1,2-dimethoxyethane, read-out: Solubility classification); 10 to 33 mg/mL in series [1] (THF, water and EtOH, water, thermodynamic from solid, THF, water and EtOH, read-out: Solubility classification). Moreover, the solubility was 5 mg/mL in series [1] (acetone, organic solvent or mixture, thermodynamic from solid, Acetone, read-out: Solubility); 245 mg/mL in series [1] (acetone/water (90/10), organic solvent or mixture, thermodynamic from solid, Acetone/water (90/10), read-out: Solubility); 100 to 1000 mg/mL in series [1] (acetone/water (90/10, v/v) and IPA/water (90/10, v/v), organic solvent or mixture, thermodynamic from solid, acetone/water (90/10, v/v) and IPA/water (90/10, v/v), read-out: Solubility classification); 3 mg/mL in series [1] (acetonitrile, organic solvent or mixture, thermodynamic from solid, Acetonitrile, read-out: Solubility); < 0.04 mg/mL in series [1] (anisole, organic solvent or mixture, thermodynamic from solid, Anisole, read-out: Solubility); 0.5 mg/mL in series [1] (chloroform, organic solvent or mixture, thermodynamic from solid, Chloroform, read-out: Solubility). The solubility in series [1] (cyclohexane, organic solvent or mixture, thermodynamic from solid, Cyclohexane, read-out: Solubility) was < 0.07 mg/mL; in series [1] (dichloromethane, organic solvent or mixture, thermodynamic from solid, Dichloromethane, read-out: Solubility) it was 0.3 mg/mL; in series [1] (diethyl ether, organic solvent or mixture, thermodynamic from solid, Diethyl ether, read-out: Solubility), < 0.04 mg/mL; in series [1] (ethanol, organic solvent or mixture, thermodynamic from solid, Ethanol, read-out: Solubility) it was 13.6 mg/mL; in series [1] (ethyl acetate, organic solvent or mixture, thermodynamic from solid, Ethyl acetate, read-out: Solubility), 0.3 mg/mL; in series [1] (ethyl formate, organic solvent or mixture, thermodynamic from solid, Ethyl formate, read-out: Solubility), 0.4 mg/mL. For the same molecule, the solubility in series [1] (isopropyl acetate, organic solvent or mixture, thermodynamic from solid, Isopropyl acetate, read-out: Solubility) was 0.1 mg/mL; in series [1] (methanol, organic solvent or mixture, thermodynamic from solid, Methanol, read-out: Solubility) it was 65.7 mg/mL; in series [1] (methanol, organic solvent or mixture, thermodynamic from solid, methanol, read-out: Solubility classification), 33 to 100 mg/mL; in series [1] (methyl ethyl ketone, organic solvent or mixture, thermodynamic from solid, Methyl ethyl ketone, read-out: Solubility), 2.9 mg/mL; in series [1] (n-heptane, organic solvent or mixture, thermodynamic from solid, n-Heptane, read-out: Solubility) it was < 0.06 mg/mL; in series [1] (organic solvent or mixture, thermodynamic from solid, 1,4-dioxane, chloroform, ethyl formate, DCM, ethyl acetate and isopropyl acetate, read-out: Solubility classification) it was 0.1 to 1 mg/mL. Further, the solubility is < 0.1 mg/mL in series [1] (organic solvent or mixture, thermodynamic from solid, toluene, anisole, MTBE, diethyl ether, pentane, cyclohexane and n-heptane, read-out: Solubility classification); < 0.05 mg/mL in series [1] (pentane, organic solvent or mixture, thermodynamic from solid, Pentane, read-out: Solubility); < 0.04 mg/mL in series [1] (tert-butyl methyl ether, organic solvent or mixture, thermodynamic from solid, tert-Butyl methyl ether, read-out: Solubility); 14.2 mg/mL in series [1] (tetrahydrofuran, organic solvent or mixture, thermodynamic from solid, Tetrahydrofuran, read-out: Solubility); < 0.04 mg/mL in series [1] (toluene, organic solvent or mixture, thermodynamic from solid, Toluene, read-out: Solubility); 13.6 mg/mL in series [1] (water, thermodynamic from solid, Water, read-out: Solubility). For the same molecule, the Variability of absorption result in series [2] is reported as “lower than the hydrochloride salt”.
Take `CN1CC[C@@H](c2c(O)cc(O)c3c(=O)cc(-c4ccc(C(F)(F)F)cc4Cl)oc23)[C@@H]1CO.O=C(O)CC(=O)O` [Mao1]: the “Physical stability upon drying under deep/high vacuum” value in series [3] was “physically stable”.
With `CN1CCC(c2c(O)cc(O)c3c(=O)cc(-c4ccc(C(F)(F)F)cc4Cl)oc23)C1CO.O=P(O)(O)O` (centres unmarked) [Pho1], in series [3], the “Physical stability upon drying under deep/high vacuum” value is reported as “physically stable; also recorded: remained stable”. In series [3] (phosphate salt cooling crystallization, form after drying under deep vacuum (5 mbar), label = ambient-dried form), the Vacuum result is reported as “Pho1”. The “Solid forms Vacuum” value in series [3] (phosphate salt thermocycling solids, form after drying under deep vacuum (5 mbar, 18 h), HT-XRPD, label = ambient-dried form) is reported as “Pho1”.

As a reminder, the solubility is the dissolved amount per volume that the medium holds.
